Assay results: PubChem BioAssay (NCI)
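1) Cells in 96-well plates. 2) Compound, 48 h, 5 concentrations. 3) Linear interpolation between surrounding doses. 4) Unreached endpoint = highest concentration. TGI marks complete inhibition of growth.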

Experiments:
Test in all cases: NCI tumour cell line growth inhibition, 48 h
SF-295 CNS = system: SF-295 CNS
UACC-257 melanoma = system: UACC-257 melanoma
HCC-2998 colon = system: HCC-2998 colon
HOP-92 NSCLC = system: HOP-92 NSCLC
MALME-3M melanoma = system: MALME-3M melanoma
HOP-18 NSCLC = system: HOP-18 NSCLC
EKVX NSCLC = system: EKVX NSCLC
SN12C renal = system: SN12C renal
SK-MEL-5 melanoma = system: SK-MEL-5 melanoma
SK-OV-3 ovarian = system: SK-OV-3 ovarian
OVCAR-8 ovarian = system: OVCAR-8 ovarian
SK-MEL-2 melanoma = system: SK-MEL-2 melanoma
COLO 205 colon = system: COLO 205 colon
LOX IMVI melanoma = system: LOX IMVI melanoma
RXF 393 renal = system: RXF 393 renal
HCT-15 colon = system: HCT-15 colon
K-562 leukemia = system: K-562 leukemia
KM20L2 colon = system: KM20L2 colon
HCT-116 colon = system: HCT-116 colon
SF-539 CNS = system: SF-539 CNS
786-0 renal = system: 786-0 renal
SNB-75 CNS = system: SNB-75 CNS
OVCAR-4 ovarian = system: OVCAR-4 ovarian
HT29 colon = system: HT29 colon
UACC-62 melanoma = system: UACC-62 melanoma
NCI-H460 lung = system: NCI-H460 lung
HOP-62 NSCLC = system: HOP-62 NSCLC
A549 NSCLC = system: A549 NSCLC
NCI-H522 lung = system: NCI-H522 lung
IGROV1 ovarian = system: IGROV1 ovarian
M19-MEL melanoma = system: M19-MEL melanoma
A498 renal = system: A498 renal
KM12 colon = system: KM12 colon
SK-MEL-28 melanoma = system: SK-MEL-28 melanoma
RXF-631 renal = system: RXF-631 renal
MOLT-4 leukemia = system: MOLT-4 leukemia
SNB-19 CNS = system: SNB-19 CNS
UO-31 renal = system: UO-31 renal
SW-620 colon = system: SW-620 colon
RPMI-8226 leukemia = system: RPMI-8226 leukemia
DMS 114 small cell lung = system: DMS 114 small cell lung
U251 CNS = system: U251 CNS
OVCAR-3 ovarian = system: OVCAR-3 ovarian
ACHN renal = system: ACHN renal
M14 melanoma = system: M14 melanoma
HL-60(TB) leukemia = system: HL-60(TB) leukemia
XF 498 CNS = system: XF 498 CNS
CCRF-CEM leukemia = system: CCRF-CEM leukemia
SNB-78 CNS = system: SNB-78 CNS
SF-268 CNS = system: SF-268 CNS
NCI-H226 lung = system: NCI-H226 lung
NCI-H23 lung = system: NCI-H23 lung
TK-10 renal = system: TK-10 renal
DMS 273 small cell lung = system: DMS 273 small cell lung
LXFL 529 NSCLC = system: LXFL 529 NSCLC
OVCAR-5 ovarian = system: OVCAR-5 ovarian
DLD-1 colon = system: DLD-1 colon
CAKI-1 renal = system: CAKI-1 renal
SR leukemia = system: SR leukemia

SMILES: CC#C[C@@]1(O)CCCCC1O (stereo partly drawn)
- TGI (SF-295 CNS): > 100 µM
- TGI (UACC-257 melanoma): > 100 µM
- TGI (HCC-2998 colon): > 100 µM
- TGI (HOP-92 NSCLC): > 100 µM
- TGI (MALME-3M melanoma): > 100 µM
- TGI (HOP-18 NSCLC): > 100 µM
- TGI (EKVX NSCLC): > 100 µM
- TGI (SN12C renal): > 100 µM
- TGI (SK-MEL-5 melanoma): > 100 µM
- TGI (SK-OV-3 ovarian): > 100 µM
- TGI (OVCAR-8 ovarian): > 100 µM
- TGI (SK-MEL-2 melanoma): > 100 µM
- TGI (COLO 205 colon): > 100 µM
- TGI (LOX IMVI melanoma): > 100 µM
- TGI (RXF 393 renal): > 100 µM
- TGI (HCT-15 colon): > 100 µM
- TGI (K-562 leukemia): > 100 µM
- TGI (KM20L2 colon): > 100 µM
- TGI (HCT-116 colon): > 100 µM
- TGI (SF-539 CNS): > 100 µM
- TGI (786-0 renal): > 100 µM
- TGI (SNB-75 CNS): > 100 µM
- TGI (OVCAR-4 ovarian): > 100 µM
- TGI (HT29 colon): > 100 µM
- TGI (UACC-62 melanoma): > 100 µM
- TGI (NCI-H460 lung): > 100 µM
- TGI (HOP-62 NSCLC): > 100 µM
- TGI (A549 NSCLC): > 100 µM
- TGI (NCI-H522 lung): > 100 µM
- TGI (IGROV1 ovarian): > 100 µM
- TGI (M19-MEL melanoma): > 100 µM
- TGI (A498 renal): > 100 µM
- TGI (KM12 colon): > 100 µM
- TGI (SK-MEL-28 melanoma): > 100 µM
- TGI (RXF-631 renal): > 100 µM
- TGI (MOLT-4 leukemia): > 100 µM
- TGI (SNB-19 CNS): > 100 µM
- TGI (UO-31 renal): > 100 µM
- TGI (SW-620 colon): > 100 µM
- TGI (RPMI-8226 leukemia): > 100 µM
- TGI (DMS 114 small cell lung): > 100 µM
- TGI (U251 CNS): > 100 µM
- TGI (OVCAR-3 ovarian): > 100 µM
- TGI (ACHN renal): > 100 µM
- TGI (M14 melanoma): > 100 µM
- TGI (HL-60(TB) leukemia): > 100 µM
- TGI (XF 498 CNS): > 100 µM
- TGI (CCRF-CEM leukemia): > 100 µM
- TGI (SNB-78 CNS): > 100 µM
- TGI (SF-268 CNS): > 100 µM
- TGI (NCI-H226 lung): > 100 µM
- TGI (NCI-H23 lung): > 100 µM
- TGI (TK-10 renal): > 100 µM
- TGI (DMS 273 small cell lung): > 100 µM

SMILES: CC(O)C(C(=O)O)N(CC1(O)OCC(O)C(O)C1O)N=O (stereo not drawn)
- TGI (UACC-257 melanoma): > 100 µM
- TGI (HCC-2998 colon): > 100 µM
- TGI (HOP-92 NSCLC): > 100 µM
- TGI (MALME-3M melanoma): > 100 µM
- TGI (EKVX NSCLC): > 100 µM
- TGI (SK-OV-3 ovarian): > 100 µM
- TGI (OVCAR-8 ovarian): > 100 µM
- TGI (SK-MEL-2 melanoma): > 100 µM
- TGI (COLO 205 colon): > 100 µM
- TGI (LOX IMVI melanoma): > 100 µM
- TGI (RXF 393 renal): > 100 µM
- TGI (LXFL 529 NSCLC): > 100 µM
- TGI (K-562 leukemia): > 100 µM
- TGI (KM20L2 colon): > 100 µM
- TGI (HCT-116 colon): > 100 µM
- TGI (SF-539 CNS): > 100 µM
- TGI (786-0 renal): > 100 µM
- TGI (SNB-75 CNS): > 100 µM
- TGI (HT29 colon): > 100 µM
- TGI (UACC-62 melanoma): > 100 µM
- TGI (NCI-H460 lung): > 100 µM
- TGI (HOP-62 NSCLC): > 100 µM
- TGI (A549 NSCLC): > 100 µM
- TGI (NCI-H522 lung): > 100 µM
- TGI (IGROV1 ovarian): > 100 µM
- TGI (M19-MEL melanoma): > 100 µM
- TGI (A498 renal): > 100 µM
- TGI (KM12 colon): > 100 µM
- TGI (OVCAR-5 ovarian): > 100 µM
- TGI (SK-MEL-28 melanoma): > 100 µM
- TGI (RXF-631 renal): > 100 µM
- TGI (MOLT-4 leukemia): > 100 µM
- TGI (UO-31 renal): > 100 µM
- TGI (SW-620 colon): > 100 µM
- TGI (RPMI-8226 leukemia): > 100 µM
- TGI (DMS 114 small cell lung): > 100 µM
- TGI (U251 CNS): > 100 µM
- TGI (OVCAR-3 ovarian): > 100 µM
- TGI (ACHN renal): > 100 µM
- TGI (M14 melanoma): > 100 µM
- TGI (HL-60(TB) leukemia): > 100 µM
- TGI (XF 498 CNS): > 100 µM
- TGI (CCRF-CEM leukemia): > 100 µM
- TGI (SNB-78 CNS): > 100 µM
- TGI (NCI-H23 lung): > 100 µM
- TGI (TK-10 renal): > 100 µM
- TGI (DMS 273 small cell lung): > 100 µM
- TGI (DLD-1 colon): > 100 µM

SMILES: Cn1ccnc1Cn1cc(-c2cccc(-c3cn[nH]c3)c2)cn1
- TGI (SF-295 CNS): > 100 µM
- TGI (UACC-257 melanoma): > 100 µM
- TGI (HCC-2998 colon): > 100 µM
- TGI (HOP-92 NSCLC): > 100 µM
- TGI (EKVX NSCLC): 99.8 µM
- TGI (SN12C renal): > 100 µM
- TGI (SK-MEL-5 melanoma): > 100 µM
- TGI (SK-OV-3 ovarian): 41.9 µM
- TGI (CAKI-1 renal): > 100 µM
- TGI (OVCAR-8 ovarian): > 100 µM
- TGI (SK-MEL-2 melanoma): > 100 µM
- TGI (COLO 205 colon): > 100 µM
- TGI (LOX IMVI melanoma): > 100 µM
- TGI (RXF 393 renal): > 100 µM
- TGI (HCT-15 colon): > 100 µM
- TGI (LXFL 529 NSCLC): > 100 µM
- TGI (K-562 leukemia): > 100 µM
- TGI (KM20L2 colon): > 100 µM
- TGI (HCT-116 colon): > 100 µM
- TGI (786-0 renal): > 100 µM
- TGI (SNB-75 CNS): > 100 µM
- TGI (OVCAR-4 ovarian): > 100 µM
- TGI (UACC-62 melanoma): 49 µM
- TGI (NCI-H460 lung): > 100 µM
- TGI (HOP-62 NSCLC): > 100 µM
- TGI (A549 NSCLC): > 100 µM
- TGI (NCI-H522 lung): > 100 µM
- TGI (SR leukemia): > 100 µM
- TGI (M19-MEL melanoma): > 100 µM
- TGI (A498 renal): > 100 µM
- TGI (KM12 colon): > 100 µM
- TGI (SK-MEL-28 melanoma): > 100 µM
- TGI (RXF-631 renal): > 100 µM
- TGI (MOLT-4 leukemia): > 100 µM
- TGI (SNB-19 CNS): > 100 µM
- TGI (UO-31 renal): > 100 µM
- TGI (SW-620 colon): > 100 µM
- TGI (RPMI-8226 leukemia): > 100 µM
- TGI (DMS 114 small cell lung): > 100 µM
- TGI (U251 CNS): > 100 µM
- TGI (OVCAR-3 ovarian): > 100 µM
- TGI (ACHN renal): > 100 µM
- TGI (M14 melanoma): > 100 µM
- TGI (HL-60(TB) leukemia): > 100 µM
- TGI (XF 498 CNS): > 100 µM
- TGI (CCRF-CEM leukemia): > 100 µM
- TGI (SNB-78 CNS): > 100 µM
- TGI (SF-268 CNS): > 100 µM
- TGI (TK-10 renal): > 100 µM
- TGI (DMS 273 small cell lung): > 100 µM
- TGI (DLD-1 colon): > 100 µM
